Calls of active or inactive are those of the source.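 How the source made its calls: active means fitted curve drops below -35% activity at a concentration within twice the top valid tested dose; inconclusive means no clear call, values can overlap the other calls; inactive means signal rising instead of falling, among other cases.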

System in one assay: not listed separately
Nature of the assay: ATP-based viability loss in HepG2 cells – cell-based, CellTiter-Glo luminescence, cherry-pick, set 3, cytotoxicity control, dose response (AID 720589). The conditions noted are these: HepG2 viability, ATP luminescence (CellTiter-Glo), 72 h; at 0.011 µM; hits give low values; 0% = untreated, negative = ATP loss. For orientation: Cellular ATP, detected with luciferase, serves as a proxy for viable cell number.
With `CC(=O)Nc1cccc(-c2ccnc3c2CC(C)(C(=O)NCc2ccc(N(C)C)cc2)O3)c1` (stereo unspecified), the max activity is 32.9% (inactive).

On to `CCNC(=O)c1cccc(S(=O)(=O)N2CCCCCC2)c1`, for which the max activity was -31.4% (inactive).

In the case of `N/C(=C\C(=O)c1cc(Cl)ccc1O)C(Cl)(Cl)Cl`, the max activity is -18.1% (inactive).

`Cc1ccsc1C(=O)OCC(=O)NCCC1=CCCCC1`: the max activity is -13% (inactive).

In the case of `COc1ccccc1-c1cn(CC[C@H]2CC[C@@H](NC(=O)C3CCCC3)[C@@H](CO)O2)nn1`, the max activity was 18.9% (inactive).

Take `CCn1c(/C=N/NC(=O)c2ccc(OC)cc2)nc2ccccc21`: the max activity is -35.2% (inactive).

With `O=C1CCCC2=C1C(c1ccccn1)Nc1ccc(C(=O)c3ccccc3)cc1N2` (stereo unspecified), the max activity is 38.6% (inactive).

`COC(=O)c1c(C)[nH]c(/C=N/Nc2ccccc2)c1C`: the max activity was -17.5% (inactive).

Staying with this assay, now noted: HepG2 viability, ATP luminescence (CellTiter-Glo), 72 h; at 0.012 µM; hits give low values; 0% = untreated, negative = ATP loss.
Turning to `CN(C)C(=O)c1ccc(-c2ccccc2[C@@H]2[C@@H](CO)N(C(=O)C3CC3)[C@H]2C#N)cc1`, the max activity was 20.5% (inactive).

The assay is the same for the next values; noted with them: HepG2 viability, ATP luminescence (CellTiter-Glo), 72 h; at 0.035 µM; hits give low values; 0% = untreated, negative = ATP loss.
For the molecule `O=C(O)c1ccccc1C(=O)Nc1ccc(Oc2cccc3ccccc23)cc1`, the max activity was -12.6% (inactive).

Take `O=c1c2ccccc2oc2ccc(C#CC3(O)CCCCC3)cc12`: the max activity is -33.7% (inactive).

In the case of `O=C1C(=O)N(Cc2cccs2)c2ccccc21`, the max activity is -28.1% (inactive).

Staying with this assay, now noted: HepG2 viability, ATP luminescence (CellTiter-Glo), 72 h; at 0.1 µM; hits give low values; 0% = untreated, negative = ATP loss.
On to `CCc1ccc(N2C=C(C(=O)OC)C(c3ccc(OC)cc3)C(C#N)=C2N)cc1` (stereo unspecified), for which the max activity was -15.5% (inactive).

Staying with this assay, now noted: HepG2 viability, ATP luminescence (CellTiter-Glo), 72 h; at 0.3 µM; hits give low values; 0% = untreated, negative = ATP loss.
`Nc1ccc(Oc2ccccc2-c2ccccc2)cc1`: the max activity was -37% (inactive).

As for `COC(=O)C[C@@H]1CC[C@@H]2[C@H](COc3ccc(NC(=O)c4cccc(F)c4)cc3C(=O)N2C)O1`, the max activity is -26.8% (inactive).

As for `COc1cc(/C=C/C(=O)/C=C(O)/C=C/c2ccc(O)c(OC)c2)ccc1O`, the max activity was -31.5% (inactive).

In the case of `CCc1c(C(=O)NN2C(=O)C3CCCCC3C2=O)csc1C` (stereo unspecified), the max activity is -31.9% (inactive).

The same assay, now with this note: HepG2 viability, ATP luminescence (CellTiter-Glo), 72 h; at 0.35 µM; hits give low values; 0% = untreated, negative = ATP loss.
Turning to `COC(=O)C[C@@H]1CC[C@H]2[C@H](COc3ccc(NC(=O)Nc4cc(C)cc(C)c4)cc3C(=O)N2C)O1`, the max activity was 15% (inactive).

Still in this assay, the particulars now being: HepG2 viability, ATP luminescence (CellTiter-Glo), 72 h; at 0.9 µM; hits give low values; 0% = untreated, negative = ATP loss.
In the case of `C[C@@H]1CN([C@H](C)CO)C(=O)c2cc(NC(=O)CCCCCC(=O)Nc3ccccc3N)ccc2O[C@H]1CN(C)S(=O)(=O)c1ccc(Cl)cc1`, the max activity is -26.7% (inactive).

For the molecule `CCc1ccc(Cn2ncc3c(C(=O)O)cc(C)nc32)cc1`, the max activity was -27.2% (inactive).

The same assay, now with this note: HepG2 viability, ATP luminescence (CellTiter-Glo), 72 h; at 2.85 µM; hits give low values.
Consider `C[C@]12CC[C@H](O)C[C@H]1CC[C@@H]1C2CC[C@]2(C)[C@@H](C3=CC(=O)OC3)[C@@H](O)C[C@]12O` (stereo partly specified), for which the max activity is -53.6% (inactive).

Still in this assay, the particulars now being: HepG2 viability, ATP luminescence (CellTiter-Glo), 72 h; at 2.85 µM; hits give low values; 0% = untreated, negative = ATP loss.
As to `COc1ccc(Nc2oc(COc3ccccc3OC)nc2C#N)cc1`, the max activity was -51% (inactive).

For the molecule `N#C[C@@H]1[C@H](c2ccc(C#Cc3ccccc3F)cc2)[C@@H](CO)N1C(=O)c1cccnc1`, the max activity is -22% (inactive).

With `CC(C)Oc1ccc(Br)cc1C(=O)N/N=C/c1c[nH]c2ccccc12`, the max activity was -17% (inactive).

Staying with this assay, now noted: HepG2 viability, ATP luminescence (CellTiter-Glo), 72 h; at 8 µM; hits give low values; 0% = untreated, negative = ATP loss.
Regarding `CN(C)c1ccc(-c2ccnc3c2CC(C)(C(=O)NCc2ccco2)O3)cc1` (stereo unspecified), the max activity was -25.6% (inactive).

With `COc1ccc2oc(-c3ccccc3)cc(=O)c2c1`, the max activity is 25.1% (inactive).

As for `C[C@@H]1CN([C@@H](C)CO)C(=O)c2cccc(NC(=O)Nc3cccc4ccccc34)c2O[C@@H]1CN(C)Cc1ccc(C(=O)Nc2ccccc2N)cc1`, the max activity was -36.9% (inactive).

With `O=C(O)c1ccc(N/N=C/c2c(F)cccc2Cl)cc1`, the max activity was -13.6% (inactive).

The same assay, now with this note: HepG2 viability, ATP luminescence (CellTiter-Glo), 72 h; at 26 µM; hits give low values.
Regarding `O=C1NC(=S)NC(=O)C1=Cc1cccn1-c1ccc(O)cc1`, the max activity was -27.6% (inactive).

The same assay, now with this note: HepG2 viability, ATP luminescence (CellTiter-Glo), 72 h; at 26 µM; hits give low values; 0% = untreated, negative = ATP loss.
`Cc1ccc(/C=C/C(=O)N2CCN(S(=O)(=O)c3c(C)c(C)cc(C)c3C)CC2)o1`: the max activity was -14.8% (inactive).

For `O=C(CNC(c1ccccc1)c1ccccc1)Nc1ccccc1-c1ccccc1`, the max activity was 10.7% (inactive).

For `Nc1sc(-c2ccccc2)cc1-c1n[nH]c(=S)n1C1CCCCC1`, the max activity was -25.2% (inactive).

Turning to `COc1ccc(C2=NNC(=Nc3cc(S(=O)(=O)N(C)C)ccc3C)SC2)c(OC)c1`, the max activity was -17.3% (inactive).

Regarding `Cc1nn(-c2ccc(F)cc2)c2nc(N)c(C#N)c(-c3ccc(O)c(O)c3)c12`, the max activity was -39.7% (inactive).

In the case of `O=c1[nH]c(=O)n(C2C[C@H](O)[C@@H](CO)O2)cc1C(F)(F)F` (stereo partly specified), the max activity is -30.8% (inactive).

Consider `O=C1CCC2S/C(=C/Nc3ccc(C(F)(F)F)cc3)C(=O)N12` (stereo unspecified), for which the max activity was 25.6% (inactive).

Turning to `COc1cccc(OC)c1C(=O)Nc1cc(C)nn1-c1nc2ccccc2[nH]1`, the max activity was -39.9% (inactive).

As for `COc1cc2oc3cc(C#Cc4ccc(N)cc4)ccc3c(=O)c2cc1OC`, the max activity was -39.4% (inactive).

Take `COc1ccc(-c2sc3ccccc3c2-c2ccc(OCCN3CCCCC3)cc2)cc1`: the max activity was -22.5% (inactive).

Regarding `O=C1C(=O)N(CCS(=O)(=O)c2ccccc2)c2ccccc21`, the max activity is 24.1% (inactive).

Regarding `COC(=O)Cc1[nH]n(-c2nc3ccccc3s2)c(=O)c1C(C)=Nc1ccc(OC)cc1`, the max activity was -20.2% (inactive).

A further assay relates to HepG2 viability, ATP luminescence (CellTiter-Glo), 72 h. The assay is described as above.
Conditions: not given
`COc1cc(C(=O)N2CCC(N3CCN(C)CC3)CC2)ccc1Nc1ncc2c(n1)N(C)c1ccccc1C(=O)N2C`: the AC35 is 11.4 µM.

`Nc1nc(=S)c2[nH]cnc2[nH]1`: the AC35 is 1.81 µM.

Take `C[C@H](CO)N1C[C@H](C)[C@H](CN(C)Cc2ccc(Oc3ccccc3)cc2)Oc2ccc(NC(=O)Cn3cnnn3)cc2CC1=O`: the AC35 is 6.59 µM.

Regarding `C[C@@H]1CN([C@@H](C)CO)C(=O)c2cccc(N(C)C)c2O[C@@H]1CN(C)Cc1ccc(C(=O)Nc2ccccc2N)cc1`, the AC35 is 4.26 µM.

As for `Cc1cccc(CN2C(=O)/C(=C\c3ccc(C(=O)NCCCN4CCN(C)CC4)cc3)Oc3ccccc32)c1`, the AC35 is 11.2 µM.

`BrC(=C\c1ccccc1)/C=N/n1cnnc1`: the AC35 was 16.6 µM.

For the molecule `CC(C)N1C/C(=C/c2ccsc2)C(=O)/C(=C/c2ccsc2)C1`, the AC35 is 11.7 µM.

Consider `CCCCc1c(-c2ccccc2OC)ncn1Cc1ccc(C(C)(C)C)cc1`, for which the AC35 was 8.48 µM.

Consider `OCC1OC(n2ccc3c2ncn2ncnc32)C(O)C1O` (stereo unspecified), for which the AC35 is 0.339 µM.

On to `CN(C)c1ncnc2c1ccn2C1OC(CO)C(O)C1O` (stereo unspecified), for which the AC35 was 0.178 µM.

With `Cc1ccc(C(C)C)c(OCc2ccc(C(=O)N/N=C/c3ccc(O)cc3O)cc2)c1`, the AC35 was 4.24 µM.

With `Cn1ccc2cc(-c3ccc4ncnc(NCc5cccs5)c4c3)ccc21`, the AC35 is 16.6 µM.

Take `Cc1ccc(S(=O)(=O)Nc2ccc3c(c2)C(=O)N([C@@H](C)CO)C[C@@H](C)[C@@H](CN(C)Cc2ccc(C(=O)Nc4ccccc4N)cc2)O3)cc1`: the AC35 is 6.33 µM.

Consider `Cc1cc(-c2nc3ccccc3s2)ccc1N`, for which the AC35 was 0.0502 µM.

In the case of `C(=N\Nc1nc2ccccc2s1)/c1ccccn1`, the AC35 was 4.83 µM.

In the case of `C(=N\Nc1nc2ccccc2[nH]1)/c1ccccn1`, the AC35 is 7.93 µM.

Consider `C[C@@H]1CN([C@@H](C)CO)C(=O)Cc2cc(NC(=O)C3CCCCC3)ccc2O[C@H]1CN(C)Cc1ccc(C(=O)Nc2ccccc2N)cc1`, for which the AC35 was 0.83 µM.

As to `O=c1[nH]c(=O)n([C@H]2C[C@H](O)[C@@H](CO)O2)cc1C(F)(F)F`, the AC35 was 15.6 µM.

Turning to `C(=NNc1ccc2ccccc2n1)c1ccccn1`, the AC35 is 1.64 µM.

As for `C[C@@H]1O[C@@H](O[C@@H]2C=C3CCC4C(CC[C@]5(C)[C@@H](c6ccc(=O)oc6)CC[C@]45O)[C@@]3(C)CC2)[C@H](O)[C@H](O)[C@H]1O` (stereo partly specified), the AC35 is 0.068 µM.

For the molecule `C=C1C(=O)C=C[C@]2(C)C[C@@H]3OC(=O)[C@](C)(O)[C@H]3C[C@@H]12`, the AC35 is 11.8 µM.

On to `O=C1/C(=C\c2ccccc2)CN(C(=O)CCN2CCCCC2)C/C1=C/c1ccccc1`, for which the AC35 was 3.95 µM.

Regarding `C=C(C(=O)c1ccccc1)C(C(=C)C(=O)c1ccccc1)c1ccc(OC)cc1`, the AC35 was 8.69 µM.

`CCN1/C(=C/C(C)=C/c2sc3ccccc3[n+]2CC)Sc2ccccc21`: the AC35 is 0.838 µM.

For `COc1ccc(Nc2ncnc3ccc(Br)cc23)c(OC)c1`, the AC35 was 15.6 µM.

For `COC(=O)c1ccccc1-c1c2ccc(=N)cc-2oc2cc(N)ccc12`, the AC35 was 10.2 µM.

Turning to `C[C@@H]1CN([C@@H](C)CO)C(=O)c2cccc(NS(=O)(=O)c3ccc(F)cc3)c2O[C@@H]1CN(C)Cc1ccc(C(=O)Nc2ccccc2N)cc1`, the AC35 is 1.45 µM.

On to `Cc1nc(N)nc(N)c1CCCc1ccc(Cl)c(Cl)c1`, for which the AC35 was 0.761 µM.

As to `Cc1ccc(/C=N/Nc2ccnc3cc(Cl)ccc23)c(C)c1`, the AC35 is 5.3 µM.

With `C[C@@H]1CN([C@@H](C)CO)C(=O)c2cc(NC(=O)Nc3ccccc3)ccc2O[C@@H]1CN(C)Cc1ccc(C(=O)Nc2ccccc2N)cc1`, the AC35 is 2.69 µM.

Values taken from PubChem BioAssay AID720589 (Broad Institute, 2013).
